Laboratory results: patent US8637516B2 (IRM LLC, priority 2010, dated 2014)
pIC50: −log10 of the molar value.

Legend:
[1] = target: T1, Ba/F3 cells transformed with human Tel-TrkA (Homo sapiens, UniProt P04629); test: Proliferation of Ba/F3 cells transformed with human Tel-TrkA (Ba/F3 Tel-TrkA); assay type: cell-based; details: Table 1; 48 hours, Bright Glo luminescence; read-out: Ba/F3 Tel-TrkA
T1 construct: expressed in transfected cells; host or cells: Ba/F3 murine hematopoietic progenitor cells (luciferase expressing); the other entry of the earlier key: ETV6 (P41212, Transcription factor ETV6)
T1 sequence (P04629 510-796 limits assumed): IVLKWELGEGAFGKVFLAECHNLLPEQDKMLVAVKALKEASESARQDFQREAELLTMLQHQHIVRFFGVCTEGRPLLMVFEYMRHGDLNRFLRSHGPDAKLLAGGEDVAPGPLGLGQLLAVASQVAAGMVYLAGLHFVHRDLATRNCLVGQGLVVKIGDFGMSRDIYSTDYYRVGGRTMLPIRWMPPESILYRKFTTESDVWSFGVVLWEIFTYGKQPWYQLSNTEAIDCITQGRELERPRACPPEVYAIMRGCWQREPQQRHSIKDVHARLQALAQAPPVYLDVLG
Source text: Compound dilutions were made in 384 well plates.
The emited luminiscence is quantified using ViewLux (PerkinElmer).

parental Ba/F3 cells = test: Proliferation of parental (untransformed, wt) Ba/F3 cells (BAF3/WT); assay type: cell-based, murine; details: Mus musculus, Table 1, parental cells with IL3, 48 hours
How it was run: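 Parental Ba/F3 cells, maintained with mouse IL-3, were plated at 700 cells/well with compound (0.17 nM to 10 uM, 3-fold dilutions). After 48 h at 37 °C, proliferation was read by Bright-Glo luminescence.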

Structure (SMILES)	pIC50 [1]	pIC50 (parental Ba/F3 cells)
CCOC(=O)c1cnc2ccc(N3C[C@H](F)C[C@H]3c3cccc(F)c3)nn12 [X-166, ethyl 6-((2S,4R)-4-fluoro-2-(3-fluorophenyl)pyrrolidin-1-yl)imidazo[1,2-b]pyridazine-3-carboxylate]	6.50	< 5.00
CCOCC(=O)Nc1cnc2ccc(N3CCC[C@@H]3c3cccc(F)c3)nn12 [X-168, (R)-2-ethoxy-N-(6-(2-(3-fluorophenyl)pyrrolidin-1-yl)imidazo[1,2-b]pyridazin-3-yl)acetamide]	7.77	< 5.00
CC(=O)OCC(=O)Nc1cnc2ccc(N3CCC[C@@H]3c3cccc(F)c3)nn12 [X-172, (R)-2-(6-(2-(3-fluorophenyl)pyrrolidin-1-yl)imidazo[1,2-b]pyridazin-3-ylamino)-2-oxoethyl acetate]	7.42	< 5.00
COCCC(=O)Nc1cnc2ccc(N3CCC[C@@H]3c3cccc(F)c3)nn12 [X-173]	6.64	< 5.00
N#CCC(=O)Nc1cnc2ccc(N3CCC[C@@H]3c3cccc(F)c3)nn12 [X-184]	6.54	< 5.00
COc1ccc(OCC(=O)Nc2cnc3ccc(N4CCC[C@@H]4c4cccc(F)c4)nn23)cc1 [X-186]	7.11	< 5.00
CC(=O)OC(C)(C)C(=O)Nc1cnc2ccc(N3CCC[C@@H]3c3cccc(F)c3)nn12 [X-188]	7.34	< 5.00
CC(C)(C)OC(=O)NCC(=O)Nc1cnc2ccc(N3CCC[C@@H]3c3cccc(F)c3)nn12 [X-192]	6.90	< 5.00
O=C(NCCCl)Nc1cnc2ccc(N3CCC[C@H]3c3cccc(F)c3)nn12 [X-209]	6.60	< 5.00
CCOC(=O)Nc1cnc2ccc(N3CCC[C@@H]3c3cccc(F)c3)nn12 [X-236, (R)-ethyl 6-(2-(3-fluorophenyl)pyrrolidin-1-yl)imidazo[1,2-b]pyridazin-3-ylcarbamate]	6.26	< 5.00

Now from value to compound, other results behind:

pIC50 [1]	Structure (SMILES)	pIC50 (parental Ba/F3 cells)
6.93	NCC(=O)Nc1cnc2ccc(N3CCC[C@@H]3c3cccc(F)c3)nn12 [X-193]	< 5.00
7.64	COCC(=O)Nc1cnc2ccc(N3CCC[C@@H]3c3cccc(F)c3)nn12 [X-200]	< 5.05
6.41	CC(=O)NCC(=O)Nc1cnc2ccc(N3CCC[C@H]3c3cccc(F)c3)nn12 [X-201]	< 5.00
7.55	NCC(=O)Nc1cnc2ccc(N3CC(F)(F)C[C@@H]3c3cccc(F)c3)nn12 [X-204, (R)-2-amino-N-(6-(4,4-difluoro-2-(3-fluorophenyl)pyrrolidin-1-yl)imidazo[1,2-b]pyridazin-3-yl)acetamide]	< 5.00
6.78	NC(=NO)c1cnc2ccc(N3CCCC3c3cccc(F)c3)nn12 (stereo not drawn) [X-226]	< 5.00
7.36	NC(=NO)c1cnc2ccc(N3CCC[C@@H]3c3cccc(F)c3)nn12 [X-227, (Z)-6-(2-(3-fluorophenyl)pyrrolidin-1-yl)-N′-hydroxyimidazo[1,2-b]pyridazine-3-carboximidamide]	< 5.00
6.88	CO/N=C(/N)c1cnc2ccc(N3CCC[C@@H]3c3cccc(F)c3)nn12 [X-228, (R)-6-(2-(3-fluorophenyl)pyrrolidin-1-yl)-N′-methoxyimidazo[1,2-b]pyridazine-3-carboximidamide]	< 5.00
6.48	N/C(=N\OCCO)c1cnc2ccc(N3CCC[C@@H]3c3cccc(F)c3)nn12 [X-229]	< 5.00
6.42	CC(C)(C)OC(=O)Nc1cnc2ccc(N3CCC[C@@H]3c3cccc(F)c3)nn12 [X-233]	< 5.00
6.35	CC(C)OC(=O)Nc1cnc2ccc(N3CCC[C@@H]3c3cccc(F)c3)nn12 [X-234]	< 5.00
6.23	COC(=O)Nc1cnc2ccc(N3CCC[C@@H]3c3cccc(F)c3)nn12 [X-235]	< 5.00
